Patent US20210147498A1, “USE OF GRAM-NEGATIVE LYSIN-ANTIMICROBIAL PEPTIDE (AMP) POLYPEPTIDE CONSTRUCTS IN PULMONARY SURFACTANT AND BIOFILMS” (priority 2018, published 2021)
In brackets after ≈: the same amount, converted by molar mass. Read-outs that look alike come from different tables or passages of the source.

Legend:
[1] = tested on: P. aeruginosa (strain WC-452); assay: 21-day serial passage resistance assay; type: cell-based, Pseudomonas aeruginosa; conditions: CAA broth, over 18 days of serial passage
Procedure: The well with the highest concentration of GN lysin in which bacterial growth was seen was then used as the inoculum for the next day's passage, and the process was repeated over a 21 day period. The MIC at each daily time-point was recorded, and resistance was measured as a step-wise increase in MIC.

P. aeruginosa = assay: MIC by modified CLSI broth microdilution in CAA media, CAA with human serum or with Survanta; type: cell-based; conditions: Pseudomonas aeruginosa
Description: 2015. […] Clinical and Laboratory Standards Institute, Wayne, Pa.

[2] = tested on: carbapenem-resistant P. aeruginosa strains; assay: microbe, parasite or virus in culture; type: cell-based, Pseudomonas aeruginosa; conditions: for MIC: Pseudomonas aeruginosa; for MIC Combination / MIC Alone: vs. WC-452
Procedure: Such resensitization may be determined by combining the present lysins or lysin-AMP polypeptide constructs with an antibiotic in a checkerboard assay as described herein. Antibiotic-resistant bacteria, such as carbapenem-resistant P. aeruginosa, are added to the lysin or lysin-AMP polypeptide construct combination. […] See Clinical and Laboratory Standards Institute (CLSI), CLSI. […] M100 Performance Standards for Antimicrobial Susceptibility Testing; 29th Edition. Clinical and Laboratory Standards Institute, Wayne, Pa., which is herein incorporated by reference in its entirety.
Up to seven carbapenem-resistant isolates were assessed. […] See Clinical and Laboratory Standards Institute (CLSI), CLSI. […] M100 Performance Standards for Antimicrobial Susceptibility Testing; 29th Edition. Clinical and Laboratory Standards Institute, Wayne, Pa.

O=C(O)c1cn(C2CC2)c2cc(N3CCNCC3)c(F)cc2c1=O [Ciprofloxacin]
increase of MIC during serial passage [1]: 16 fold

C[C@@H](O)[C@H]1C(=O)N2C(C(=O)O)=C(S[C@@H]3CN[C@H](C(=O)N(C)C)C3)[C@H](C)[C@H]12 [Meropenem, meropenem]
MIC (P. aeruginosa; ATCC17646, read-out: Meropenem MIC (μg/mL), strain CFS 1109 (ATCC 17646)): 0.5 µg/mL (≈ 1.3 µM)
MIC (P. aeruginosa; ATCC27853, read-out: Meropenem MIC (μg/mL), strain CFS 1766 (ATCC 27853)): 1 µg/mL (≈ 2.61 µM)
MIC (P. aeruginosa; PA1, read-out: Meropenem MIC (μg/mL), strain CFS 1539 (PA1)): 16 µg/mL (≈ 41.7 µM)
MIC (P. aeruginosa; read-out: Meropenem MIC (μg/mL), […]): > 32 µg/mL
MIC (P. aeruginosa; read-out: Meropenem MIC (μg/mL), strain CFS 1541 (PA3)): 8 µg/mL (≈ 20.9 µM)
MIC (P. aeruginosa; read-out: Meropenem MIC (μg/mL), strain CFS 1596 (PA26)): 0.5 µg/mL (≈ 1.3 µM)
MIC (P. aeruginosa; read-out: Meropenem MIC (μg/mL), strain CFS 1597 (PA27)): 1 µg/mL (≈ 2.61 µM)
MIC (P. aeruginosa; read-out: Meropenem MIC (μg/mL), strain CFS 1669 (PA41)): < 0.25 µg/mL
MIC (P. aeruginosa; read-out: Meropenem MIC (μg/mL), strain CFS 1674 (PA46)): 4 µg/mL (≈ 10.4 µM)
MIC (P. aeruginosa; read-out: Meropenem MIC (μg/mL), strain CFS 1675 (PA47)): 4 µg/mL (≈ 10.4 µM)
MIC ([2]; GN121, read-out: MIC (μg/mL) Alone, isolate PA19, checkerboard Meropenem + GN121): 32 µg/mL
MIC ([2]; GN121, read-out: MIC (μg/mL) Alone, isolate PA20, checkerboard Meropenem + GN121): 16 µg/mL
MIC ([2]; GN121, read-out: MIC (μg/mL) Alone, isolate PA21, checkerboard Meropenem + GN121): 32 µg/mL
MIC ([2]; GN121, read-out: MIC (μg/mL) Alone, isolate PA22, checkerboard Meropenem + GN121): 16 µg/mL
MIC ([2]; GN121, read-out: MIC (μg/mL) Alone, isolate PA23, checkerboard Meropenem + GN121): 16 µg/mL
MIC ([2]; GN121, read-out: MIC (μg/mL) Alone, isolate PA24, checkerboard Meropenem + GN121): 32 µg/mL
MIC ([2]; GN121, read-out: MIC (μg/mL) Alone, isolate WC-452, checkerboard Meropenem + GN121): 16 µg/mL
MIC ([2]; GN123, read-out: MIC (μg/mL) Alone, isolate PA19, checkerboard MEROPENEM + GN123): 32 µg/mL
MIC ([2]; GN123, read-out: MIC (μg/mL) Alone, isolate PA20, checkerboard MEROPENEM + GN123): 16 µg/mL
MIC ([2]; GN123, read-out: MIC (μg/mL) Alone, isolate PA21, checkerboard MEROPENEM + GN123): 32 µg/mL
MIC ([2]; GN123, read-out: MIC (μg/mL) Alone, isolate PA22, checkerboard MEROPENEM + GN123): 16 µg/mL
MIC ([2]; GN123, read-out: MIC (μg/mL) Alone, isolate PA23, checkerboard MEROPENEM + GN123): 16 µg/mL
MIC ([2]; GN123, read-out: MIC (μg/mL) Alone, isolate PA24, checkerboard MEROPENEM + GN123): 32 µg/mL
MIC ([2]; GN123, read-out: MIC (μg/mL) Alone, isolate WC-452, checkerboard MEROPENEM + GN123): 16 µg/mL
susceptibility category of the isolate, carbapenem Alone ([2]; isolate PA19): (R) ((R) = resistant)
MIC (μg/mL) Combination ([2]; isolate PA19, MEROPENEM combined with GN123): 0.5 µg/mL
MIC (μg/mL) Combination ([2]; isolate PA19, Meropenem combined with GN121): 1 µg/mL
susceptibility category of the isolate, carbapenem in Combination ([2]; isolate PA19, combined with GN123): (S) ((S) = sensitive)
susceptibility category of the isolate, carbapenem Alone ([2]; isolate PA20): (R) ((R) = resistant)
MIC (μg/mL) Combination ([2]; isolate PA20, MEROPENEM combined with GN123): 0.5 µg/mL
MIC (μg/mL) Combination ([2]; isolate PA20, Meropenem combined with GN121): 1 µg/mL
susceptibility category of the isolate, carbapenem in Combination ([2]; isolate PA20, combined with GN123): (S) ((S) = sensitive)
susceptibility category of the isolate, carbapenem Alone ([2]; isolate PA21): (R) ((R) = resistant)
MIC (μg/mL) Combination ([2]; isolate PA21, MEROPENEM combined with GN123): 1 µg/mL
MIC (μg/mL) Combination ([2]; isolate PA21, Meropenem combined with GN121): 2 µg/mL
susceptibility category of the isolate, carbapenem in Combination ([2]; isolate PA21, combined with GN123): (S) ((S) = sensitive)
susceptibility category of the isolate, carbapenem Alone ([2]; isolate PA22): (R) ((R) = resistant)
MIC (μg/mL) Combination ([2]; isolate PA22, MEROPENEM combined with GN123): 1 µg/mL
MIC (μg/mL) Combination ([2]; isolate PA22, Meropenem combined with GN121): 1 µg/mL
susceptibility category of the isolate, carbapenem in Combination ([2]; isolate PA22, combined with GN123): (S) ((S) = sensitive)
susceptibility category of the isolate, carbapenem Alone ([2]; isolate PA23): (R) ((R) = resistant)
MIC (μg/mL) Combination ([2]; isolate PA23, MEROPENEM combined with GN123): 0.5 µg/mL
MIC (μg/mL) Combination ([2]; isolate PA23, Meropenem combined with GN121): 2 µg/mL
susceptibility category of the isolate, carbapenem in Combination ([2]; isolate PA23, combined with GN123): (S) ((S) = sensitive)
susceptibility category of the isolate, carbapenem Alone ([2]; isolate PA24): (R) ((R) = resistant)
MIC (μg/mL) Combination ([2]; isolate PA24, MEROPENEM combined with GN123): 2 µg/mL
MIC (μg/mL) Combination ([2]; isolate PA24, Meropenem combined with GN121): 1 µg/mL
susceptibility category of the isolate, carbapenem in Combination ([2]; isolate PA24, combined with GN123): (S) ((S) = sensitive)
susceptibility category of the isolate, carbapenem Alone ([2]; isolate WC-452): (R) ((R) = resistant)
MIC (μg/mL) Combination ([2]; isolate WC-452, MEROPENEM combined with GN123): 1 µg/mL
MIC (μg/mL) Combination ([2]; isolate WC-452, Meropenem combined with GN121): 1 µg/mL
susceptibility category of the isolate, carbapenem in Combination ([2]; isolate WC-452, combined with GN123): (S) ((S) = sensitive)
susceptibility category of the isolate, carbapenem in Combination ([2]; isolate WC-452, combined with GN351): (S) ((S) = sensitive)
susceptibility category of the isolate, carbapenem in Combination ([2]; isolate WC-452, combined with GN370): (S) ((S) = sensitive)
susceptibility category of the isolate, carbapenem in Combination ([2]; isolate WC-452, combined with GN428): (S) ((S) = sensitive)
MIC Combination ([2]; MEM combined with GN351): 1 µg/mL
MIC Combination ([2]; MEM combined with GN370): 0.5 µg/mL
MIC Combination ([2]; MEM combined with GN428): 1 µg/mL
MIC Alone ([2]; checkerboard MEM + GN351): 16 µg/mL
MIC Alone ([2]; checkerboard MEM + GN428): 16 µg/mL
